≈ marks a conversion by molar mass, not a printed value. Where two headings read alike, the source gives them in different places.
Experiments:
[1] = physchem; conditions: simulated gi fluid, pH 1.2
[2] = test system: plasma proteins; conditions: 4 h, 2 μM, pH 7.4
[3] = female, 129sv DHP-1 knockout, mouse, in vivo
[4] = test system: WT Mtb H37Rv; assay: Colony-forming unit (CFU) assay, replicating WT Mtb H37Rv; format: cell-based, Mycobacterium tuberculosis
[5] = 2 h, 2 μM
[6] = in vitro; conditions: CD-1, mouse, plasma, pH 7.4, % bound to plasma
[7] = Metabolic stability, human; format: in vitro ADME
Protocol: (§1) Metabolic stability and induction of human hepatocytes were performed as previously described.[71]

[8] = test system: plasma proteins; conditions: 4 h, 2 μM, pH 7.4; remark: listed apart in the source
[9] = in vitro; conditions: human
[10] = in vitro; conditions: monkey, plasma
[11] = test system: CYP1A2; format: in vitro ADME; conditions: human, hepatocytes, 3 µM
Protocol: as §1

[12] = test system: CYP3A5; format: in vitro ADME; conditions: human, hepatocytes, 3 µM
Protocol: as §1

[13] = test system: CYP2B6; format: in vitro ADME; conditions: human, hepatocytes, 3 µM
Protocol: as §1

[14] = in vivo; conditions: female, 129sv DHP-1 knockout, mouse, sc, 50 mg/kg
[15] = molecular target: CYP3A4 (Homo sapiens, UniProt P08684); assay: CYP3A4 inhibition
[16] = male, CD-1, mouse, 2 h, 2 μM
[17] = SD, 2 h, 2 μM
[18] = in vitro; conditions: SD, rat, plasma, pH 7.4, % bound to plasma
[19] = Metabolic stability, mouse; format: in vitro ADME
[20] = in vitro; conditions: beagle, dog, plasma, pH 7.4
[21] = physchem; conditions: simulated gi fluid, pH 6.5, FaSSIF Stability, % remaining
[22] = 300 mg/kg sc, uninfected DHP-1 mice
[23] = test system: plasma proteins; conditions: 4 h, 2 μM, pH 7.4; remark: listed apart in the source
[24] = physchem; format: physicochemical; conditions: thermodynamic from solid
Protocol: Compounds were prepared at 1 mg/mL and left overnight at room temperature with stirring in phosphate buffer, 50 mM, at pH 7.4 or in 0.1 N HCl at pH 1. After separation of the soluble fraction by centrifugation, samples were filtered onto a polytetrafluoroethylene […] filter (Millipore) and then analyzed by HPLC.

[25] = test system: wild-type Mtb H37Rv; format: in vivo, 129sv DHP-1 knockout mice
[26] = in vitro; conditions: cynomolgus monkey, plasma, pH 7.4
[27] = in vitro; conditions: male, CD-1, mouse, plasma, Plasma stability % Remaining
[28] = test system: P. aeruginosa; assay: Microbial spectrum, P. aeruginosa; format: cell-based, Pseudomonas aeruginosa
[29] = test system: Caco-2 cells
[30] = test system: Mtb H37Rv; assay: MIC90 against replicating (R) Mtb H37Rv, with or without clavulanate; format: cell-based, Mycobacterium tuberculosis; conditions: Table S4
[31] = in vivo; conditions: DHP-1 knockout, mouse, sc, 300 mg/kg

CYP3A4, sequence (P08684 whole entry, species assumed): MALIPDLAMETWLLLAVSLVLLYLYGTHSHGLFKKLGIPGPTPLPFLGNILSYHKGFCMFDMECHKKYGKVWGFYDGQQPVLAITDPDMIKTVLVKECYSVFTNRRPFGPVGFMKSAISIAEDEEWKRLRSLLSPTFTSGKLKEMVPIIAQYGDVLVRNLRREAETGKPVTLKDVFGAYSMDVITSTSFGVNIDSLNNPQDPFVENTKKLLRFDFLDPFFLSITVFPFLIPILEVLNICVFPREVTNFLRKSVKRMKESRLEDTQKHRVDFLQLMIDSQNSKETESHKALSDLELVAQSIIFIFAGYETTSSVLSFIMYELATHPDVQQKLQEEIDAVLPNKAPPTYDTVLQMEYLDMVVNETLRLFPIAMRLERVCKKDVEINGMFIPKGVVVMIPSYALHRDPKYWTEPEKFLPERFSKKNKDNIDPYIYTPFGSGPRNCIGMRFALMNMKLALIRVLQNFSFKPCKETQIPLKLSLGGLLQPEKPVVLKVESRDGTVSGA

Q: For O=C(Cc1ccc(C2=NCCN2)cc1)N[C@@H]1C(=O)N2C(C(=O)O)=C(CSc3nncs3)CS[C@H]12 [TBBL-0000316], which remaining at 1 h, 10 μM [1] is on record?
A: 83.7%

Q: What about the remaining at 24 h, 10 μM [1] of the same molecule?
A: 0.45%

Q: And the “% bound to plasma, CD-1 Mouse” value [2]?
A: 18%

Q: And the Tlast [3]?
A: 6.0 h

Q: What about the “reduction in CFU” value ([4]; daily dosing for 5 days with 4 μg/mL clavulanate, at ≥1 μM) of the same molecule?
A: 3–4 log10

Q: And the “reduction in CFU” value ([4]; single dose at 10 μM, one-week exposure, 4 μg/mL clavulanate)?
A: 3.5 log10

Q: What about the “Plasma stability % Remaining, Human” value [5] of the same molecule?
A: 86%

Q: What about the fraction unbound at 4 h, 2 μM [6] of the same molecule?
A: 0.817

Q: What about the metabolic stability [7] of the same molecule?
A: 5.4 μL/min/mg protein

Q: What about the “metabolic stability 1/2 life” value [7] of the same molecule?
A: 256 min

Q: And the “% bound to plasma, SD Rat” value [8]?
A: 62%

Q: And the Papp A→B at 120 min, 3 μM ([9]; Caco-2, pH 7.4)?
A: 3.1 nm/s

Q: And the Papp B→A at 120 min, 3 μM ([9]; Caco-2, pH 7.4)?
A: 3.2 nm/s

Q: And the Papp at 120 min, 3 µM ([9]; Caco-2, pH 7.4)?
A: 3 nm/s

Q: What about the efflux ratio at 120 min, 3 μM ([9]; Caco-2, pH 7.4) of the same molecule?
A: 1.06

Q: What about the recovery at 120 min, 3 μM ([9]; Caco-2, pH 7.4, Caco-2 Mean Recovery % A to B) of the same molecule?
A: 104%

Q: And the recovery at 120 min, 3 μM ([9]; Caco-2, pH 7.4, Caco-2 Mean Recovery % B to A)?
A: 110%

Q: And the remaining at 2 h, 2 μM [10]?
A: 114%

Q: What about the “induction of expression of CYP1A2” value [11] of the same molecule?
A: < 2 fold

Q: And the “induction of expression of CYP3A5” value [12]?
A: < 2 fold

Q: What about the “induction of expression of CYP2B6” value [13] of the same molecule?
A: < 2 fold

Q: What about the AUC(0-t) [14] of the same molecule?
A: 23.7 µg·h/mL

Q: And the Cmax [14]?
A: 17.5 µg/mL

Q: And the Tmax [14]?
A: 30 min

Q: And the IC50 [15]?
A: > 25 µM

Q: And the “Plasma stability % Remaining, Mouse” value [16]?
A: 89%

Q: What about the “Plasma stability % Remaining, Rat” value [17] of the same molecule?
A: 86%

Q: And the fraction unbound at 4 h, 2 μM [18]?
A: 0.378

Q: What about the metabolic stability [19] of the same molecule?
A: 1.1 μL/min/mg protein

Q: And the “metabolic stability 1/2 life” value [19]?
A: 1300 min

Q: And the fraction unbound at 4 h, 2 μM [20]?
A: 0.973

Q: What about the remaining at 6 h, 10 μM ([21]; 6h) of the same molecule?
A: 94.7%

Q: What about the remaining at 24 h, 10 μM ([21]; 24h) of the same molecule?
A: 84.2%

Q: What about the Tlast [22] of the same molecule?
A: 2.0 to 4.0 h

Q: What about the “% bound to plasma, Human” value [23] of the same molecule?
A: 38%

Q: And the solubility ([24]; pH 1, simulated gastric fluid)?
A: 0.402 mg/mL (≈ 778 µM)

Q: And the solubility ([24]; pH 7.4, aqueous buffer)?
A: > 1 mg/mL

Q: And the “Log10 CFU per mouse (lungs), Mean” value ([25]; 50 mg/kg sc bid + clavulanate 100 mg/kg po bid, days 9-15, lungs day 16, untreated day 16 mean 9.1)?
A: 8.2 Log10 CFU

Q: And the “reduction of lung CFU compared to untreated control mice” value ([25]; mouse, in vivo)?
A: 0.9 log10

Q: What about the fraction unbound at 4 h, 2 μM [26] of the same molecule?
A: 0.335

Q: What about the remaining at 2 h, 2 μM [27] of the same molecule?
A: 88.5%

Q: And the MIC90 ([28]; Pseudomonas aeruginosa, P. aeruginosa)?
A: > 100 µM

Q: And the P.aeruginosa R + CLAV (MIC90) ([28]; clavulanate 4 μg/mL, Table S4)?
A: > 100 µM

Q: What about the “Caco-2 Rank Papp” value [29] of the same molecule?
A: Low

Q: And the “Efflux Transporter Substrate” value [29]?
A: Poor or no

Q: And the Mtb H37Rv R + CLAV (MIC90) ([30]; clavulanate 4 μg/mL)?
A: 0.5 µM

Q: And the Mtb H37Rv R (MIC90) ([30]; no clavulanate)?
A: 44.7 µM

Q: And the AUC(0-t) [31]?
A: 60.2 ± 11.4 µg·h/mL

Q: What about the Cmax [31] of the same molecule?
A: 28.7 ± 0.866 µg/mL

Q: What about the Tmax [31] of the same molecule?
A: 60 to 120 min
